Legend:
[1] = system: human colon tumors (LoVo); experiment: Inhibition of growth of human colon tumors (LoVo) growing subcutaneously in the nude mouse; assay type: in vivo, human tumor in nude mouse; conditions: for T/C: 1 × i.v., d0
Description: The tested human tumors are routinely maintained and passaged in nude mice. The tumors are tested for human characteristics by immunohistochemistry using monoclonal antibodies at each 3rd passage. The tumor is removed under sterile conditions and cut into small pieces of about 5-10 mm^3. One piece of tumor is implanted subcutaneously into the side of each nude mouse. After about 7-14 days, the piece of tumor is adherent to the surrounding tissue, and the tumor size A is determined with the aid of a calliper rule and measurement of two opposite diameters (a, b) by the following formula: […]
After another measurement of the tumor size carried out at an interval of 3 days, the animals are randomized to the control group and to the groups to be treated (6 animals in each group). Only animals in which a progressive tumor growth was found are used for this. Starting with the day of randomization ([…]), the animals are treated with the test substances in accordance with the scheme indicated below. Twice a week the two tumor diameters are measured for each mouse, and the individual tumor areas are calculated in accordance with the abovementioried formula.
After completion of the experiment, the relative tumor sizes for each individual animal on the particular measurement day are calculated by the formula: Ar =A(day X) /A(day 0). The median for the treated group (AT) is then related to the median for the relative control tumor size (AC), and T/C%=AT /AC […] is calculated. The statistical significance of the antitumor effect is determined with the aid of the Wilcoxon U test.

[2] = system: Salmonella typhimurium antigen (STA) induced foot swelling; experiment: Delayed Type Hypersensitivity (DTH), 24 h foot swelling; assay type: in vivo, mouse
Description: c) DTH model in the mouse
The effect of 14-O-[4-(beta-D-glucuronyloxy)-3nitrobenzylaminocarbonyl]doxorubicin (prodrug) on inflammation was investigated in a model of delayed type cutaneous reaction (Delayed Type Hypersensitivity, DTH) corresponding to the method described by Collins and Mackaness (J. Immunol. 101: 830-845,1968).
In this model, mice were immunized with a defined amount of killed Salmonella typhimurium bacteria (109) twice at an interval of one week. Three. weeks after the first immunization a DTH reaction was provoked by intraplantar injection of a Salmonella typhimurium antigen (STA). A local inflammatory infiltrate which was composed of granulocytes, macrophages, lymphocytes and accumulated interstitial fluid developed. The extent of the reaction was measured by the increase in foot swelling 24 hours after provocation of the reaction. The effect of the prodrug on the inflammatory reaction was tested with two treatment schemes. One group received a single intravenous administration of 500 mg/kg prodrug 2 hours after the STA injection, and another group received three injections of, in each case, 300 mg/kg prodrug at times 2, 5 and 8 hours after the STA injection.

[3] = Acute toxicity in nude mice (LD50, survival on day 14); conditions: mouse, in vivo, iv, nude mice (CD-1, nu/nu), 5 min infusion
Description: To determine the acute toxicity, nude mice (CD-1, nu/nu) were infused on day 0 with various doses of the test substance dissolved in 0.5 ml of 5% glucose solution over a period of 5 minutes. Control groups receive merely 0.5 ml of 5% glucose solution. 5 mice are used per concentration of the test substance. The number of mice surviving on day 14 is determined, and the Litchfield Wilcoxon method is used to determine the LD50.

[4] = Plasma half-life after i.v. injection, liposomal and free prodrug; assay type: in vivo, CD1 nu/nu mice
[5] = system: human tumor xenografts (ovarian, breast, stomach, lung and bowel carcinomas); experiment: Prodrug activation/monotherapy in human tumor xenografts; assay type: in vivo, human tumor in nude mouse
Description: It was possible to show by means of a histochemical test (Murray et al., the journal of histochemistry and cytochemistry 37, 643-652, 1989) for determining. functional human β-glucuronidase that functionally active human .rho.-glucuronidase is present within the necrosis; i.e. cells whose cytoplasmic membrane has already been damaged still contain functionally active β-glucuronidase in the cytoplasm. This human β-glucuronidase which is localized in the necrosis and is not protected by the cytoplasmic membrane brings about the cleavage of the hydrophilic prodrug to the drug in the LoVo tumor.

mouse mammary carcinoma = conditions: ten i.v. administrations and glucose acidification; treatment started 24 h after implantation; cited from earlier work
[6] = Baba et al., Gann 69, 1978; cited from earlier work
[7] = butyric acid liberated from prodrugs in vivo; cited from earlier work
adjuvant arthritis = experiment: Adjuvant arthritis in the rat; assay type: in vivo
Description: b) Adjuvant arthritis in the rat

EAE = EAE model; assay type: in vivo
Description: Schorlemmer et al., Drugs Exptl. Clin. Res. XVII (10/11) 461-469 (1991)

In the case of COc1cccc2c1C(=O)c1c(O)c3c(c(O)c1C2=O)C[C@@](O)(C(=O)CO)C[C@@H]3O[C@H]1C[C@H](N)[C@H](O)[C@H](C)O1 [Doxorubicin, doxorubicin, reference compound], the T/C ([1]; 12 mg/kg) is reported as 78.4% and the T/C ([1]; 12 mg/kg, listed as doxorubicin) is reported as ~ 80%.

In the case of CC(C)Cc1ccc(C(C)C(=O)O)cc1 (stereo not shown) [Ibuprofen, ibuprofen, reference compound], the “24 h foot swelling” value ([2]; 200 mg/kg, 1 × p.o. (t = 0), marked xx) is reported as 1.7 ± 2.2.

For COc1cccc2c1C(=O)c1c(O)c3c(c(O)c1C2=O)C[C@@](O)(C(=O)COC(=O)NCc1ccc(O[C@@H]2O[C@H](C(=O)O)[C@@H](O)[C@H](O)[C@H]2O)c([N+](=O)[O-])c1)C[C@@H]3O[C@H]1C[C@H](N)[C@H](O)[C@H](C)O1 [Compound 8, 14-O-[4-(Beta-D-glucuronyloxy)-3-nitrobenzylaminocarbonyl]doxorubicin], the LD50 at 336 h [3] was > 1500 mg/kg, the T/C ([1]; 500 mg/kg, listed as Prodrug) was 40.0% and the T/C ([1]; 500 mg/kg, listed as prodrug) was ~ 40%. For the same compound, the “efficacy compared with fusion protein in combination with prodrug” value ([1]; LoVo, prodrug alone) was “as effective as in the group which received fusion protein in combination with prodrug”, the “statistical significance (p) of difference to doxorubicin treatment” value ([1]; tumor growth, vs doxorubicin treatment) was < 0.05 and the “24 h foot swelling” value ([2]; 300 mg/kg, 3 × i.v. (t = +2, +5, +8 h), marked xx) was 1.1 ± 1.3. The “24 h foot swelling” value ([2]; 500 mg/kg, 1 × i.v. (t = +2 h), mean ± spread, marked x) was 3.5 ± 3.9, the “effect by comparison with standard therapy” value ([2]; DTH) was “superior effect” and the “reduction in the inflammatory reaction” value ([2]; both prodrug treatment schemes) was “significant reduction in the inflammatory reaction”. For the same compound, the “effect compared with ibuprofen” value ([2]; three administrations of prodrug (300 mg/kg)) was “slightly superior to the standard therapy”, the half-life ([4]; mouse, plasma, iv, free prodrug, CD1 nu/nu mice (data not shown)) was ~20 min and the “increase in plasma half-life after protein preincubation” value ([4]; preincubation with 50 g/l human serum albumin or human acid alpha-1 glycoprotein) was “less distinct increase in the plasma half-life”. The “effect of prodrug monotherapy on tumors without significant necrosis” value ([5]; non-necrotic tumors (data not shown)) was “cannot be treated by prodrug monotherapy” and the “endogenous activation by central necrosis” value ([5]; ovarian, breast, stomach, lung and bowel carcinoma xenografts) was “confirmed in a large number of human tumor xenografts”.

In the case of O=C(O)[C@H]1O[C@@H](Oc2nc(=O)[nH]cc2F)[C@H](O)[C@@H](O)[C@@H]1O [FUOG, 5-fluorouracil O-.rho.-D-glucuronide], the “effect on mouse mammary carcinoma” value (mouse mammary carcinoma) is listed as “distinct effect”.

For O=c1[nH]cc(F)c(=O)[nH]1 [Compound 5-FU, 5-fluorouracil], the LD50 [6] is given as 200 mg/kg.

For CCCC(=O)O [butyric acid], the “therapeutic effects compared with cisplatin” value [7] is listed as “inferior to those of a standard cytostatic (cisplatin)”.

In the case of CC(OC(=O)OCc1ccc(O[C@@H]2O[C@H](C(=O)O)[C@@H](O)[C@H](O)[C@H]2O)c([N+](=O)[O-])c1)=C(C#N)C(=O)Nc1ccc(C(F)(F)F)cc1 [Compound 22, 4-(β-D-Glucuronyloxy)-3-nitrobenzyl 2-[1-cyano-1-(N-4-trifluoromethylphenyl)carbamoyl]propen-1-yl carbonate], the “activity by comparison with the active substance (Leflunomide)” value (adjuvant arthritis) is reported as “superior activity” and the “activity by comparison with the active substance (Leflunomide)” value (EAE) is reported as “superior activity”.

From patent US5955100A, “Prodrugs their preparation and use as pharmaceuticals” (priority 1992, dated 1999)
